Reference: patent US20250052744A1, “Dyes and Uses Thereof” (The University of Liverpool, priority 2021, published 2025)

Columns and labels:
Assay in all cases: Qualitative dye staining on agarose pads (EVOS M7000)
Format in all cases: cell-based
Parameters in all cases: key to Relative fluorescent intensity: Very high: If the cells looked twice as big in the fluorescent channel, it was marked as having “very high” relative fluorescent intensity; High: if the cells looked bigger in the fluorescent channel, it was marked as having “high” relative fluorescent intensity; Medium: If the cells looked almost the same size in the fluorescent channel and the bright field, it was marked as having “medium” relative fluorescent intensity; Low: If the cells looked smaller in the fluorescent channel as compared to the brightfield but still the whole cell was visible, it was marked as having “low” relative fluorescent intensity; Negligible: If only a few traces of a cell was visible in the fluorescent channel, it was marked as having “negligible” relative fluorescent intensity
Enterococcus spp. = conditions: Table 6 thresholds, Entercoccus, DiSC3(5) 3 μM, SYBR Green I 10×, SYTO 13 3 μM, FM4-64 15 μM
Experimental: (§1) An overnight culture was prepared by inoculating a bacterial colony in approximately 5 ml of Urine and incubating the culture in an orbital shaker at 37° C.
(§2) The following media and materials were utilised: Cation-adjusted Mueller Hinton broth (MHB); Phosphate Buffered Saline (PBS); Membrane staining dye—FM4-64 (1.5 mM); Live cell staining dye—DiSC3(5) (1 mM); DNA staining dye—SYBR Green (1000×); DNA staining dye—SYTO 13 (0.5 mM); Ultrapure Agarose; Parafilm; Glass slides and coverslips; Scalpel; and EVOS M7000 fluorescent microscope.
(§3) A pre-cut parafilm or a coverslip was used as a guide and 22 mm×22 mm squares cut from parafilm. A square was cut out of the centre of the parafilm (approximately 10 mm×10 mm). The centre of the cut-out was discarded. Two parafilm gaskets were placed onto a cleaned glass slide. The glass slide was then placed on a dry bath set to 56° C. so that the parafilm adhered to the glass slide. The glass slide was then kept on the dry bath. Using a microwave, ultrapure agarose was dissolved in PBS at a concentration of 1.2%. The agarose solution was kept on a dry bath set at 56° C. 60 μl of the agarose solution was pipetted in the centre of the parafilm gaskets. A coverslip was then placed over the gaskets without applying pressure on the coverslip. The slide was then placed on a cool surface and left to solidify for 1-2 minutes. The coverslips were then gently lifted off the agarose pads.
(§4) In a first Eppendorf, 15 μl of FM4-64 and 6 μl of SYTO 13 was added and in a second Eppendorf 10 μl of SYBR Green and 3 μl of DiSC3(5) was added. Depending on the bacterial growth in urine, an appropriate concentration of the bacterial culture was placed in the two Eppendorfs (final bacterial concentration 10^6 CFU/ml). MHB was added so as to achieve a final volume of 1 ml. Final concentrations of the dyes in the sample was as follows: DiSC3(5): 3 μM; SYBR Green I: 10× (originally supplied as 10,000×); SYTO 13: 3 μM; and FM4-64: 15 μM
(§5) 4 μl of the contents of each Eppendorf were deposited on one agarose pad and the cells distributed across the agar surface by tilting the slide. The slide was left to dry for approximately 1 minute. A coverslip was then placed on top of the agarose pad. The slide was placed inside the microscope and incubated at 37° C. for 10 minutes. Using different light filters for each dye, an image of each pad at 40× magnification on an EVOS M7000 fluorescent microscope was captured. Eight images for each agarose pad was recorded (i.e. 8 each for brightfield and 2 fluorescent channels). For each agarose pad, 24 images were recorded. This corresponded to 48 images in total for each bacterial strain (2 agarose pads per strain). Table A below was used to take the images using the correct fluorescent channel and intensity (for imagining on any other instrument, the LED intensity will need to be normalised against the EVOS M7000).
(§6) To qualitatively calculate the relative fluorescent intensities, cell size was compared between brightfield and the fluorescent channel for a given fluorescent dye. If the cells are very fluorescent, they will appear bigger in the fluorescent channel as compared to the bright field. For our qualitative measurements, if the cells looked bigger in the fluorescent channel, it was marked as having “high” relative fluorescent intensity. If the cells looked twice as big in the fluorescent channel, it was marked as having “very high” relative fluorescent intensity. If the cells looked almost the same size in the fluorescent channel and the bright field, it was marked as having “medium” relative fluorescent intensity. If the cells looked smaller in the fluorescent channel as compared to the brightfield but still the whole cell was visible, it was marked as having “low” relative fluorescent intensity. If only a few traces of a cell was visible in the fluorescent channel, it was marked as having “negligible” relative fluorescent intensity.

Proteus = conditions: Table 6 thresholds, DiSC3(5) 3 μM, SYBR Green I 10×, SYTO 13 3 μM, FM4-64 15 μM
Experimental: as §1, §2, §3, §4, §5, §6

[1] = test system: Staphylococcus saprophyticus; conditions: DiSC3(5) 3 μM, SYBR Green I 10×, SYTO 13 3 μM, FM4-64 15 μM
Experimental: as §1, §2, §3, §4, §5, §6

[2] = Table 6 thresholds, Staphylococcus saprophyticus
[3] = Table 7 commercial strain S. saprophyticus NCTC 13634
[4] = Table 8 sample Staphylococcus saprophyticus (047)
[5] = Table 8 sample Staphylococcus saprophyticus (048)
[6] = Table 8 sample Staphylococcus saprophyticus (049)

SMILES	Percentage of cells stained (Enterococcus spp.)	Relative fluorescent intensity (Enterococcus spp.)	Percentage of cells stained (Proteus)	Relative fluorescent intensity (Proteus)	Percentage of cells stained [1, 2]	Relative fluorescent intensity [1, 2]	Percentage of cells stained [1, 3]	Relative fluorescent intensity [1, 3]	Percentage of cells stained [1, 4]	Relative fluorescent intensity [1, 4]	Percentage of cells stained [1, 5]	Relative fluorescent intensity [1, 5]	Percentage of cells stained [1, 6]	Relative fluorescent intensity [1, 6]	Relative fluorescent intensity (Enterococcus spp.; listed as FM4-64)	Relative fluorescent intensity (Proteus; listed as FM4-64)	Relative fluorescent intensity (Enterococcus spp.; listed as SYBR Green)
CCCN1C(=CC=CC=Cc2sc3ccccc3[n+]2CCC)Sc2ccccc21.[I-] [DiSC3(5), 3,3′-Dipropylthiadicarbocyanine Iodide]	Half	low and Low	Half	Low-Medium	Almost all	high and High	Almost all	High	Almost all	High	Almost all	High	Almost all	High	–	–	–
CCN(CC)c1ccc(C=CC=CC=Cc2cc[n+](CCC[N+](CC)(CC)CC)cc2)cc1.[Br-].[Br-] [FM 4-64, N-(3-Triethylammoniumpropyl)-4-(6-(4-(Diethylamino) Phenyl) Hexatrienyl) Pyridinium Dibromide]	Almost all	medium	Few	no staining or negligible	Almost all	High	Almost all	High	Almost all	High	Almost all	High	Almost all	High	Medium	Negligible	–
CCCN(CCCN(C)C)c1cc(/C=C2/Sc3ccccc3N2C)c2ccccc2[n+]1-c1ccccc1 [SYBR Green I, N′,N′-dimethyl-N-[4-[(E)-(3-methyl-1,3-benzothiazol-2-ylidene)methyl]-1-phenylquinolin-1-ium-2-yl]-N-propylpropane-1,3-diamine]	Almost all	medium to high	Half	Low	Almost all	High	Almost all	High	Almost all	High	Almost all	High	Almost all	High	–	–	Medium-High
